Measurements as given in ChEMBL document CHEMBL1201862, “PubChem BioAssay data set” (2004).
Activity calls are given as the source filed them.

Key:
Nonstructural protein 1 = Nonstructural protein 1 (Influenza A virus, UniProt Q194T2); assay type: functional, Influenza A virus (A/California/07/2009(H1N1))
[1] = luciferase reporter signal suppression in cells – H4 neuroglioma cells, luminescence, dose response (AID 1990); assay type: functional, cell-based
[2] = molecular target: T1, Histone-lysine N-methyltransferase NSD2 (Homo sapiens, UniProt O96028); assay type: biochemical
T1 sequence (O96028 whole entry): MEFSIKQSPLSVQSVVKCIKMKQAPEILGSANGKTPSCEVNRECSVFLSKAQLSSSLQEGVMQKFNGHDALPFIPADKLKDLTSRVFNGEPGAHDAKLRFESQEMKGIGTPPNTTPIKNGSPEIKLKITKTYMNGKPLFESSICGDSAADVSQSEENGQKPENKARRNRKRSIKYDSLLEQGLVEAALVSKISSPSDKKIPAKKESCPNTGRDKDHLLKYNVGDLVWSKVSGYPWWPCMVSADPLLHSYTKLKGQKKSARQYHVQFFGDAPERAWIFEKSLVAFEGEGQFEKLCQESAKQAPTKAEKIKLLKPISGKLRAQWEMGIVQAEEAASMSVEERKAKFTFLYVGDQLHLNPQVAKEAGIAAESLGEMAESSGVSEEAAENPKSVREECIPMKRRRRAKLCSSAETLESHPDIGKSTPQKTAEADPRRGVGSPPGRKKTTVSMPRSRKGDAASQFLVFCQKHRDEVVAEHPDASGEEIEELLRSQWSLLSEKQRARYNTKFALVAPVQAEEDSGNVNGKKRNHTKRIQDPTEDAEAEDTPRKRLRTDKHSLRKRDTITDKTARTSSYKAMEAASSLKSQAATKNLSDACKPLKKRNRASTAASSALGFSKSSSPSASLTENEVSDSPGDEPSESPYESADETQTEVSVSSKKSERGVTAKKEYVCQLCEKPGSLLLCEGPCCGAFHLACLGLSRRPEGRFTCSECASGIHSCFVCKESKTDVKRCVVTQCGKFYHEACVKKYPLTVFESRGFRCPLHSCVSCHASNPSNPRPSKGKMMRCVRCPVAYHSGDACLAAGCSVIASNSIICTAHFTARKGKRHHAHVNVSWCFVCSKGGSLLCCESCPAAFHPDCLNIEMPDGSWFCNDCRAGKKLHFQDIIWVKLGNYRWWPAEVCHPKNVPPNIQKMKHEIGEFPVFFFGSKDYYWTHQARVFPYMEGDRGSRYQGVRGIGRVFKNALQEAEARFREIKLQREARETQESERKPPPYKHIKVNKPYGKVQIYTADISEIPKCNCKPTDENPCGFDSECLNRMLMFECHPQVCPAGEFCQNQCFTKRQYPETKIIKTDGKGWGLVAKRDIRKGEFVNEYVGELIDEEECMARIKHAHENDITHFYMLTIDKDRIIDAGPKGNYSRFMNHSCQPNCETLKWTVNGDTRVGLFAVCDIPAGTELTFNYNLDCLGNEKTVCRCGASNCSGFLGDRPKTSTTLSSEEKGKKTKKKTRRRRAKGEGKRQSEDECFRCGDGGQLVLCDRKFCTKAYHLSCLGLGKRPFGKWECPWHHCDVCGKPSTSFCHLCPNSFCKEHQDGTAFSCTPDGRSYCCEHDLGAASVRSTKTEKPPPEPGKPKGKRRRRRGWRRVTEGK

[3] = Luminescence Cell-Based Dose Response HTS to Identify Inhibitors of 5'UTR Stem-Loop Driven Prion Protein mRNA Translation in H4 Neuroglioblastoma Cells. [Related pubchem assays: 1827 (Project Summary), 1813 (Primary HTS)]; assay type: functional
Galanin receptor type 3 = molecular target: T2, Galanin receptor type 3 (Homo sapiens, UniProt O60755); assay: Fluorescence-based cell-based primary high throughput dose response assay to identify antagonists of the Galanin Receptor 3 (GalR3).; assay type: functional
T2 sequence (O60755 whole entry): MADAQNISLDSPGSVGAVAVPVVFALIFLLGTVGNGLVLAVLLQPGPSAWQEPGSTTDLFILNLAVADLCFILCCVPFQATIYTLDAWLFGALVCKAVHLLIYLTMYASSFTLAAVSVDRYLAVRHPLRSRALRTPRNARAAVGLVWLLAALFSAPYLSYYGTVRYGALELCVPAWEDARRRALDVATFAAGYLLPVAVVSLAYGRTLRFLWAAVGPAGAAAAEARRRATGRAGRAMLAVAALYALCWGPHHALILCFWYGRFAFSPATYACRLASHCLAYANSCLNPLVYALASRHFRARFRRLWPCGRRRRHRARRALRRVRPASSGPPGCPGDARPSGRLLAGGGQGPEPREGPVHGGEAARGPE

[4] = NIH-3T3 fibroblast cytotoxicity, dose response, cytotoxicity control, cell-based, fluorescence, Alamar Blue, secondary assay (AID 2327); assay type: functional;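 note: NIH-3T3 mouse fibroblasts cultured with fluconazole at 8 µg/mL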
[5] = fluconazole-exposed Candida albicans growth modulators – fluorescence, retest, confirmation (AID 2467); assay type: functional, cell-based
cells = assay type: functional, cell-based; conditions: HEK-CNG
[6] = alpha-synuclein stem-loop luciferase translation blockers – H4 neuroglioma cells, luminescence, confirmation (AID 1988); assay type: functional, cell-based
[7] = molecular target: T3, RNA-binding protein pos-1 (Caenorhabditis elegans, UniProt G5EF15); assay: disruptors of C. elegans POS-1 RNA interaction – biochemical, fluorescence polarization, dose response (AID 1964);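 note: purified POS-1 fused to maltose binding protein made in E. coli; potency of compounds blocking POS-1 binding to fluorescent RNA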
T3 sequence (G5EF15 whole entry): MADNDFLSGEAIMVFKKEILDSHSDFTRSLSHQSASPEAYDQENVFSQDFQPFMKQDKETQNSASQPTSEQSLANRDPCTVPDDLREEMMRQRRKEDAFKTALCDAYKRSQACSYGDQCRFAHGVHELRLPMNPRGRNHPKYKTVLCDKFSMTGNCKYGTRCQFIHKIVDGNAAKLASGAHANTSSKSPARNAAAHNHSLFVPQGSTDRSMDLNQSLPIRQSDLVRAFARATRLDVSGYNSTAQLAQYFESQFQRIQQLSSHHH

[8] = molecular target: T4, Zinc finger protein mex-5 (Caenorhabditis elegans, UniProt Q9XUB2); assay: potency of MEX-5 RNA-binding blockers – biochemical, C. elegans, fluorescence polarization, dose response (AID 1960)
T4 sequence (Q9XUB2 whole entry): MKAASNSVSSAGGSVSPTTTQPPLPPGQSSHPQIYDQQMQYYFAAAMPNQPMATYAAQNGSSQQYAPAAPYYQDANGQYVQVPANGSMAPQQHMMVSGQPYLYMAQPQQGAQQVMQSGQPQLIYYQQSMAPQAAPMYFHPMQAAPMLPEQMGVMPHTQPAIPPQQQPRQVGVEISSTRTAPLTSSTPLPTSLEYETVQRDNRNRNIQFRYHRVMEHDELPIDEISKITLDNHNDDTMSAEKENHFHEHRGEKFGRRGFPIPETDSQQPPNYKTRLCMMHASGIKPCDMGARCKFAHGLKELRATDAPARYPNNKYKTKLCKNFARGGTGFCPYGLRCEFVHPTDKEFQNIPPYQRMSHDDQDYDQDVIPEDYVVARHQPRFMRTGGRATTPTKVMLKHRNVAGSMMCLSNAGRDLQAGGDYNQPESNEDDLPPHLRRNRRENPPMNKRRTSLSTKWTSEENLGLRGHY

[9] = blockers of HIV-1 ZM109 envelope-driven cell-cell fusion – HeLa effector, CEM target cells, luciferase, cherry-pick, dose response (AID 652058); assay type: functional, cell-based;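 note: luciferase signal from HIV-1 Env mediated cell-cell fusion of effector and target cells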
[10] = off-target signal loss in HeLa-CEM21 co-culture – HeLa F-luc CTL cells, cherry-picked, counter-screen for HIV-1 Env fusion inhibitor project, dose response (AID 652040); assay type: functional, cell-based;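 note: potency for signal decrease marking cytotoxic or nonspecific inhibition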
[11] = blockers of HIV-1 envelope-mediated cell-cell fusion – cherry-pick, dose response (AID 652057); assay type: functional, cell-based
[12] = HIV-1 AD8 envelope cell-cell fusion blockers – cherry-pick, dose response (AID 652062); assay type: functional, cell-based;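 note: luciferase signal from cell-cell fusion driven by HIV-1 clade B AD8 Env; potency is for inhibitors of fusion seen as a drop in luminescence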
[13] = molecular target: T5, Replicative DNA helicase DnaB (Mycobacterium tuberculosis, UniProt P9WMR3); assay: DnaB intein splicing inhibitors, dose response, biochemical, cell-free fluorescence (AID 449749); assay type: functional
T5 sequence (P9WMR3 whole entry): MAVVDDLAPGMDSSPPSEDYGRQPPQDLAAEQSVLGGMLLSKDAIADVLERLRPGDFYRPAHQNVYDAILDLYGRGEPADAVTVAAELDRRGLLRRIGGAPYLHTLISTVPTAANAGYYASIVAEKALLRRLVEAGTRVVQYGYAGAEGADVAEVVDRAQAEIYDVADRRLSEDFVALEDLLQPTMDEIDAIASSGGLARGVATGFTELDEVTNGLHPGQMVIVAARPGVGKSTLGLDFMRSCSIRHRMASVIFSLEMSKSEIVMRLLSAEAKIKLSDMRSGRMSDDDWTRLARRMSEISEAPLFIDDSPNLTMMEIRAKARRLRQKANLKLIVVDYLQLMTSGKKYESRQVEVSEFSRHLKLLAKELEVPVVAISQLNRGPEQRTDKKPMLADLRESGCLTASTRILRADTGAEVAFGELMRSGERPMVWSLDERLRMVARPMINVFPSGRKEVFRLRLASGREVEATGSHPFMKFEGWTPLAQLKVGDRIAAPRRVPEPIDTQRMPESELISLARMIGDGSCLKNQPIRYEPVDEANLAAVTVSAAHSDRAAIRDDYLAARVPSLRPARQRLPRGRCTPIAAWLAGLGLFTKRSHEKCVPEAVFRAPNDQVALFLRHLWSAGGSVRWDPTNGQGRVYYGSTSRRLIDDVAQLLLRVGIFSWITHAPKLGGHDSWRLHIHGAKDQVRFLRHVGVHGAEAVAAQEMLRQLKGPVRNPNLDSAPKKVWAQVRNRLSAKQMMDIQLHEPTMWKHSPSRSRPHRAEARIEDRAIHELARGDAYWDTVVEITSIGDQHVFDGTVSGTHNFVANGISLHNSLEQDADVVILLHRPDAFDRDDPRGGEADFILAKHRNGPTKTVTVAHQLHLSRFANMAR

[14] = molecular target: T6, Probable nicotinate-nucleotide adenylyltransferase (Staphylococcus aureus (strain N315), UniProt P65502); assay type: functional, Staphylococcus aureus subsp. aureus N315; conditions: read-out: IC50_Mean;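 for IC50 Mean: confirmatory dose-response retesting of NadD inhibitor hits first found in an ultra-high-throughput screen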
[15] = molecular target: T7, Sentrin-specific protease 8 (Homo sapiens, UniProt Q96LD8); assay type: functional
T7 sequence (Q96LD8 whole entry): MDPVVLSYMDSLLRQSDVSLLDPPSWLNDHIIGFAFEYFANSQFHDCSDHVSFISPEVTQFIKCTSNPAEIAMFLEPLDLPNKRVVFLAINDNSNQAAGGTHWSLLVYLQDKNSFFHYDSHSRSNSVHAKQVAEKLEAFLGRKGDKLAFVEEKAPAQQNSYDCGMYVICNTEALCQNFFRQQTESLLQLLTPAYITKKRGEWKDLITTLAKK

[16] = molecular target: T7, Sentrin-specific protease 8; assay type: functional; remark: listed apart in the source
Protein RecA = molecular target: T8, Protein RecA (Mycobacterium tuberculosis, UniProt P9WHJ3); assay: Fluorescence Cell-Free Homogeneous Dose Retest to Identify Inhibitors of RecA-Intein Splicing Activity. [Related pubchem assays (depositor defined):AID2097, AID2223, AID489010, AID492950]; assay type: functional
T8 sequence (P9WHJ3 whole entry): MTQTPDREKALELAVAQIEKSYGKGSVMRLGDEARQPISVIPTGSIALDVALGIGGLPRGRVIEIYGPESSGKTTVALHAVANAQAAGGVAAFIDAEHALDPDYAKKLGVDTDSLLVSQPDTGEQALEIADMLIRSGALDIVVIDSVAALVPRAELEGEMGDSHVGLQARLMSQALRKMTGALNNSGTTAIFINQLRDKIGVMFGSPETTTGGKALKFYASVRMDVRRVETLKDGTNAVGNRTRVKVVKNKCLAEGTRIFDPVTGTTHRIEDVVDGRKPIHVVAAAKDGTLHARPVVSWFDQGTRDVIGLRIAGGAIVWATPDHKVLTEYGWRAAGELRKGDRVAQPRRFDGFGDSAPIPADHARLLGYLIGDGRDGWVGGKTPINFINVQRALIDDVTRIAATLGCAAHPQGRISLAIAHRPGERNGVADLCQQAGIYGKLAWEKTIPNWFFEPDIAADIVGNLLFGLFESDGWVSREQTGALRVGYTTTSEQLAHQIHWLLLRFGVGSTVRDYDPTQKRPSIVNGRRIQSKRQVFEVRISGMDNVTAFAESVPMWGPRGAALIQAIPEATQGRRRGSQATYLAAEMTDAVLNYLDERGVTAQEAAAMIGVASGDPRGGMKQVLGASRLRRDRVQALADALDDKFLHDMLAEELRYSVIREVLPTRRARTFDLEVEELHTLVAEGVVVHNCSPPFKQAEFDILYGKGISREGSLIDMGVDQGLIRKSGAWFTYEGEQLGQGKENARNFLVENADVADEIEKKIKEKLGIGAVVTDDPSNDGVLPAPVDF

[17] = molecular target: T6, Probable nicotinate-nucleotide adenylyltransferase; assay type: functional, Staphylococcus aureus subsp. aureus N315

T6 sequence (P65502 whole entry): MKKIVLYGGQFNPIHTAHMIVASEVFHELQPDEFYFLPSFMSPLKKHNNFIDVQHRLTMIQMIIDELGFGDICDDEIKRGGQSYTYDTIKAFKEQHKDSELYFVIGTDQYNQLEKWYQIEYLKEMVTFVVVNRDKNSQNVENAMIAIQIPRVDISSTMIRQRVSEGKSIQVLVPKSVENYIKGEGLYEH
Sequence of Nonstructural protein 1 (Q194T2 whole entry): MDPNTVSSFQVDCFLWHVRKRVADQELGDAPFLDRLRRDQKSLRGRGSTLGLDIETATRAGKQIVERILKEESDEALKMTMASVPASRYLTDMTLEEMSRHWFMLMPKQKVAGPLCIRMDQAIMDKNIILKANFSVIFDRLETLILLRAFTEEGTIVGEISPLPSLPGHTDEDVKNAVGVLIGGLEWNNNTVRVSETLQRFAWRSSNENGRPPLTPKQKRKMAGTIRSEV

SMILES: CC[n+]1c(/C=C/C=C/c2ccc(N(C)C)cc2)sc2ccccc21.[O-][Cl+3]([O-])([O-])[O-]
- IC50 (Nonstructural protein 1): 5.05 µM (active)
- EC50 [1]: 43.6 µM (active)
- AC50 [2]: 7.84 µM (active)
- EC50 [3]: 11.2 µM (active)
- IC50 (Galanin receptor type 3): > 29.9 µM (inactive)
- EC50 [4]: 82.9 µM (active)
- EC50 [5]: < 0.03 µM (active)
- EC50 (cells): > 29.9 µM (inactive)
- EC50 [6]: 0.666 µM (active)

SMILES: CCCC1Nc2ccc(C(=O)O)cc2C2C=CCC12 (stereo not given)
- AC50 [2]: 16.8 µM (active)
- EC50 [7]: 23.8 µM (active)
- EC50 [8]: 14.5 µM (active)

SMILES: C=CCN(Cc1ccc(OC)c(OC)c1)C(=O)c1cc2cc(F)ccc2[nH]1
- AC50 [9]: 9.08 µM (active)
- AC50 [10]: 11.8 µM (active)
- AC50 [11]: 6.22 µM (active)
- AC50 [12]: 10.5 µM (active)

SMILES: O=C(c1ccc(S(=O)(=O)Nc2ccc(F)cc2)cc1)N1CCN(C(=O)c2ccco2)CC1
- AC50 [9]: 10.4 µM (active)
- AC50 [10]: 24.4 µM (active)
- AC50 [12]: 2.86 µM (active)

SMILES: CCCN(CC(=O)Nc1ccccc1OC)C(=O)c1cccc(S(=O)(=O)NCc2ccccc2)c1
- AC50 [9]: 10.3 µM (active)
- AC50 [10]: 5.73 µM (active)
- AC50 [11]: 4.37 µM (active)
- AC50 [12]: 39.2 µM (active)

SMILES: CCOc1ccccc1NC(=O)CSc1nc(O)c2c(C(F)(F)F)cc(-c3cccs3)nc2n1
- AC50 [2]: > 20 µM (inactive)

SMILES: CC1=NN(c2ccc(C)c(C)c2)C(=O)C1C(c1cccc(O)c1)C1C(=O)N(c2ccc(C)c(C)c2)N=C1C (stereo not given)
- AC50 [13]: 1.14 µM (active)
- IC50 [14]: 15.1 µM (active)
- IC50 [15]: 7.94 µM (active)
- IC50 [16]: 14.7 µM (active)
- EC50 (Protein RecA): 0.468 µM (active)
- IC50 [17]: 6.63 µM (active)
